Laboratory results published in article PMC4847484, “Chemical generation and modification of peptides containing multiple dehydroalanines” (Chemical Communications (Cambridge, England), 2015).
Read-outs that look alike come from different tables or passages of the source. Positions of bridges follow the written chain, without caps; N, C: chain ends. No end group written: not given here.

Key:
[1] = the molecule shown is the open-chain precursor, crosslinker bond, 31-membered ring
[2] = biological target: human plasma kallikrein (Homo sapiens, UniProt P03952); experiment: Kallikrein inhibition assay (residual HPK activity, fluorogenic substrate Z-Phe-Arg-AMC); type: biochemical
Chain of human plasma kallikrein (P03952 391-638 limits assumed): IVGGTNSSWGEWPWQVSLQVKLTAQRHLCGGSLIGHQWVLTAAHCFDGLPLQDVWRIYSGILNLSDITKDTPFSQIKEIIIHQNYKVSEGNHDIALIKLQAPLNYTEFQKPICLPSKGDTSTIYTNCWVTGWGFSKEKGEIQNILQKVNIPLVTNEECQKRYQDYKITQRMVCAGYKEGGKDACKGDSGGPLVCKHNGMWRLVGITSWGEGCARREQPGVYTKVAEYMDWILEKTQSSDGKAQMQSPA
Chain of human plasma kallikrein (P03952 20-390 partner limits assumed): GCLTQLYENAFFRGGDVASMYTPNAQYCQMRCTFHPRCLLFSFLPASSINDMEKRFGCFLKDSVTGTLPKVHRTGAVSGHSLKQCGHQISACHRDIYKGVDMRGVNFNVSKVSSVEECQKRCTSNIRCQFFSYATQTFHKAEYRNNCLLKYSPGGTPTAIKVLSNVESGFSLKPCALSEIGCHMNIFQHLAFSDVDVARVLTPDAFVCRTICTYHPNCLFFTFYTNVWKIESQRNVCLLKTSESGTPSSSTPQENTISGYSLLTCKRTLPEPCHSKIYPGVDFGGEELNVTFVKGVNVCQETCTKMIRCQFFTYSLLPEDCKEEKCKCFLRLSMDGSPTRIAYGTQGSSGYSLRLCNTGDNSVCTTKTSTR

[3] = TBMB/NH4HCO3, aq NH4HCO3 (pH 8)/MeCN, 1.67 mM

| Substance | ring closure, yield after HPLC [1, 3] [%] | other results |
| --- | --- | --- |
| H-Ala-dCys-Ser-Asp-Arg-Phe-Arg-Asn-dCys-Pro-Ala-Asp-Glu-Ala-Leu-Cys-Gly-NH2? | 26 | – |
| H-Ala-dCys-Ser-Asp-Arg-Phe-Arg-Asn-dCys-Pro-Ala-Asp-Glu-Ala-Leu-dCys-Gly-NH2? | 26 | – |
| 13: stereochemically scrambled bicyclic peptide mixture from cyclisation of 12 with trithiol 2 (ACSDRFRNCPADEALCG; linker 2-9-16 via 1,3,5‑tris(mercaptomethyl)benzene; also: mixture of 8 stereoisomers (D/L at Cys2, Cys9, Cys16)) [compound 13] | – | IC50 ([2]; crude reaction mixture of the conversion of 12 to 13, before purification, same kallikrein inhibition assay): 0.238 ± 0.021 µM; IC50 ([2]; purified peptide, HPK incubated 30 min at room temperature with bicyclic peptide, substrate Z-Phe-Arg-AMC, Tris 10 mM pH 7.4, NaCl, MgCl2, CaCl2, 0.1% BSA, 0.01% Triton X-100, 5% DMSO, ex 355 / em 460 nm, logistic fit): 0.144 ± 0.031 µM |
| H-Ala-Cys-Ser-Asp-Arg-Phe-Arg-Asn-dCys-Pro-Ala-Asp-Glu-Ala-Leu-dCys-Gly-NH2? | 24 | – |
| H-Ala-Cys-Ser-Asp-Arg-Phe-Arg-Asn-dCys-Pro-Ala-Asp-Glu-Ala-Leu-Cys-Gly-NH2? | 16 | – |
| H-Ala-dCys-Ser-Asp-Arg-Phe-Arg-Asn-Cys-Pro-Ala-Asp-Glu-Ala-Leu-dCys-Gly-NH2? | 16 | – |
| H-Ala-Cys-Ser-Asp-Arg-Phe-Arg-Asn-Cys-Pro-Ala-Asp-Glu-Ala-Leu-Cys-Gly-NH2? | 29 | – |
| H-Ala-dCys-Ser-Asp-Arg-Phe-Arg-Asn-Cys-Pro-Ala-Asp-Glu-Ala-Leu-Cys-Gly-NH2? | 26 | – |
| H-Ala-Cys-Ser-Asp-Arg-Phe-Arg-Asn-Cys-Pro-Ala-Asp-Glu-Ala-Leu-dCys-Gly-NH2? | 10 | – |
| H-Ala-Dha-Ser-Asp-Arg-Phe-Arg-Asn-Dha-Pro-Ala-Asp-Glu-Ala-Leu-Dha-Gly-NH2 | – | ring closure, yield after HPLC ([1]; 1,3,5-tris(mercaptomethyl)benzene/K2CO3, H2O/DMF 1:1, 1.15 mM, 37.0 °C): 43% |
